In ChEMBL document CHEMBL1201862, “PubChem BioAssay data set” (2004):
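Following 48 hours of exposure in 96-well plates, responses at five concentrations were used to interpolate endpoints linearly. GI50 = concentration required for 50% inhibition of growth.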 Activity calls are given as the source filed them. No stated cut-off is given here; in the data, active = GI50 up to about 1.1 µM and inactive = higher.

Legend:
Experiment in all cases: NCI-60 cell line screen, 48 h
MDA-MB-231 = system: MDA-MB-231
HOP-62 = system: HOP-62
NCI/ADR-RES = system: NCI/ADR-RES
OVCAR-4 = system: OVCAR-4
SF-295 = system: SF-295
HCT-15 = system: HCT-15
SK-MEL-28 = system: SK-MEL-28
A498 = system: A498
SNB-75 = system: SNB-75
SF-268 = system: SF-268
MDA-N = system: MDA-N
SNB-19 = system: SNB-19
K562 = system: K562
U-251 = system: U-251
NCI-H460 = system: NCI-H460
KM12 = system: KM12
UO-31 = system: UO-31
NCI-H23 = system: NCI-H23
OVCAR-5 = system: OVCAR-5
ACHN = system: ACHN

| SMILES | GI50 (MDA-MB-231) | GI50 (HOP-62) | GI50 (NCI/ADR-RES) | GI50 (OVCAR-4) | GI50 (SF-295) | GI50 (HCT-15) [µM] | GI50 (SK-MEL-28) | GI50 (A498) | GI50 (SNB-75) | GI50 (SF-268) | GI50 (MDA-N) | GI50 (SNB-19) | GI50 (K562) | GI50 (U-251) | GI50 (NCI-H460) | GI50 (KM12) | GI50 (UO-31) | GI50 (NCI-H23) | GI50 (OVCAR-5) | GI50 (ACHN) |
| --- | --- | --- | --- | --- | --- | --- | --- | --- | --- | --- | --- | --- | --- | --- | --- | --- | --- | --- | --- | --- |
| N#C/C(=C(\O)C(=O)O)c1ccc(-c2cccc3ccccc23)cc1 | > 100 µM (inactive) | > 100 µM (inactive) | > 100 µM (inactive) | > 100 µM (inactive) | > 100 µM (inactive) | > 100 | > 100 µM (inactive) | > 100 µM (inactive) | > 100 µM (inactive) | > 100 µM (inactive) | > 100 µM (inactive) | > 100 µM (inactive) | 2.65 µM (inactive) | > 100 µM (inactive) | > 100 µM (inactive) | > 100 µM (inactive) | > 100 µM (inactive) | > 100 µM (inactive) | > 100 µM (inactive) | > 100 µM (inactive) |
| CN(C)CCCN=C(N)N | > 100 µM (inactive) | > 100 µM (inactive) | > 100 µM (inactive) | > 100 µM (inactive) | > 100 µM (inactive) | > 100 | > 100 µM (inactive) | > 100 µM (inactive) | > 100 µM (inactive) | > 100 µM (inactive) | > 100 µM (inactive) | > 100 µM (inactive) | > 100 µM (inactive) | > 100 µM (inactive) | > 100 µM (inactive) | > 100 µM (inactive) | > 100 µM (inactive) | > 100 µM (inactive) | > 100 µM (inactive) | > 100 µM (inactive) |
| NS(=O)(=O)c1ccc(NCc2cnc3ccccc3n2)cc1 | > 100 µM (inactive) | > 100 µM (inactive) | > 100 µM (inactive) | > 100 µM (inactive) | > 100 µM (inactive) | > 100 | > 100 µM (inactive) | > 100 µM (inactive) | > 100 µM (inactive) | > 100 µM (inactive) | > 100 µM (inactive) | > 100 µM (inactive) | > 100 µM (inactive) | > 100 µM (inactive) | > 100 µM (inactive) | > 100 µM (inactive) | > 100 µM (inactive) | > 100 µM (inactive) | > 100 µM (inactive) | > 100 µM (inactive) |
| CC(SCc1ccccc1)C(=O)O (stereo not given) | > 100 µM (inactive) | > 100 µM (inactive) | > 100 µM (inactive) | > 100 µM (inactive) | > 100 µM (inactive) | > 100 | > 100 µM (inactive) | > 100 µM (inactive) | > 100 µM (inactive) | > 100 µM (inactive) | > 100 µM (inactive) | > 100 µM (inactive) | > 100 µM (inactive) | > 100 µM (inactive) | > 100 µM (inactive) | > 100 µM (inactive) | > 100 µM (inactive) | > 100 µM (inactive) | > 100 µM (inactive) | > 100 µM (inactive) |
| C1CC2CN(CCCN3CCOCC3)C(C1)O2 (stereo not given) | > 100 µM (inactive) | > 100 µM (inactive) | > 100 µM (inactive) | > 100 µM (inactive) | > 100 µM (inactive) | > 100 | > 100 µM (inactive) | > 100 µM (inactive) | > 100 µM (inactive) | > 100 µM (inactive) | > 100 µM (inactive) | > 100 µM (inactive) | > 100 µM (inactive) | > 100 µM (inactive) | > 100 µM (inactive) | > 100 µM (inactive) | > 100 µM (inactive) | > 100 µM (inactive) | > 100 µM (inactive) | > 100 µM (inactive) |
| O=C1C(=O)N(c2cccc(C(F)(F)F)c2)C(=S)N1c1ccccc1 | 24.4 µM (inactive) | 34.2 µM (inactive) | 31.8 µM (inactive) | 41.1 µM (inactive) | 31.5 µM (inactive) | 19.1 | 28 µM (inactive) | 21.9 µM (inactive) | 34.5 µM (inactive) | 43.9 µM (inactive) | 25.5 µM (inactive) | 40.5 µM (inactive) | 34.5 µM (inactive) | 31.6 µM (inactive) | 2.32 µM (inactive) | 31.4 µM (inactive) | 25.2 µM (inactive) | 25.5 µM (inactive) | 30 µM (inactive) | 16.4 µM (inactive) |
| O=C(c1ccccc1)N1CCC(CC2(c3cc4ccccc4[nH]3)OCCO2)CC1 | 64.1 µM (inactive) | 58.1 µM (inactive) | > 100 µM (inactive) | 47.3 µM (inactive) | 39.4 µM (inactive) | 32.4 | 19.4 µM (inactive) | 21.4 µM (inactive) | 47.1 µM (inactive) | 51.8 µM (inactive) | 26.2 µM (inactive) | 67.9 µM (inactive) | 16.3 µM (inactive) | 34.8 µM (inactive) | 35.9 µM (inactive) | 34.2 µM (inactive) | 30.6 µM (inactive) | 42.3 µM (inactive) | 64 µM (inactive) | 65.8 µM (inactive) |
| O=c1c2cc(I)ccc2nc(Sc2ncccc2[N+](=O)[O-])n1Cc1ccccc1 | 21.1 µM (inactive) | 70 µM (inactive) | 17.2 µM (inactive) | 33.3 µM (inactive) | 60 µM (inactive) | 19.3 | > 100 µM (inactive) | 24.6 µM (inactive) | 7.08 µM (inactive) | 22.1 µM (inactive) | 20.4 µM (inactive) | 45.9 µM (inactive) | 38.5 µM (inactive) | 35.2 µM (inactive) | 29.4 µM (inactive) | 27.4 µM (inactive) | 14.3 µM (inactive) | 24 µM (inactive) | > 100 µM (inactive) | 39.1 µM (inactive) |
| C/C(=N\c1ccc(N(C)C)cc1)c1ccccc1 | 18.3 µM (inactive) | 96.2 µM (inactive) | 27 µM (inactive) | 25.1 µM (inactive) | 31.9 µM (inactive) | 18.5 | 33.7 µM (inactive) | > 100 µM (inactive) | 22.8 µM (inactive) | > 10 µM (inactive) | 21.9 µM (inactive) | 86.3 µM (inactive) | 21.3 µM (inactive) | 22.5 µM (inactive) | 81.1 µM (inactive) | 31.8 µM (inactive) | 17.8 µM (inactive) | 21.1 µM (inactive) | > 100 µM (inactive) | 26.2 µM (inactive) |
| Nc1nc2c(C(=O)O)c3ccc([N+](=O)[O-])cc3c(=O)n2c2ccccc12 | 24.9 µM (inactive) | 22.5 µM (inactive) | 20.5 µM (inactive) | 31 µM (inactive) | 29.1 µM (inactive) | 22.9 | 52.8 µM (inactive) | 43.7 µM (inactive) | 3.44 µM (inactive) | 33.8 µM (inactive) | 22.8 µM (inactive) | 28.5 µM (inactive) | 19.5 µM (inactive) | 27.2 µM (inactive) | 30.1 µM (inactive) | 25.8 µM (inactive) | 29.8 µM (inactive) | 22.6 µM (inactive) | 31 µM (inactive) | 33.1 µM (inactive) |
| COc1cc(/C=C2/Oc3c(OC)cccc3C2=O)ccc1O | > 100 µM (inactive) | 83.8 µM (inactive) | > 10 µM (inactive) | > 100 µM (inactive) | 54 µM (inactive) | 24.3 | > 100 µM (inactive) | 94 µM (inactive) | 41.8 µM (inactive) | > 100 µM (inactive) | > 100 µM (inactive) | 91 µM (inactive) | > 100 µM (inactive) | > 100 µM (inactive) | 32.4 µM (inactive) | 88.5 µM (inactive) | 63 µM (inactive) | > 100 µM (inactive) | > 100 µM (inactive) | 63.7 µM (inactive) |
| Cn1c(N)c(/N=N/c2ccc(S(N)(=O)=O)cc2)c(=O)n(C)c1=O | > 100 µM (inactive) | 40.9 µM (inactive) | > 100 µM (inactive) | > 100 µM (inactive) | > 100 µM (inactive) | > 100 | > 100 µM (inactive) | > 100 µM (inactive) | 22.6 µM (inactive) | 88.1 µM (inactive) | > 100 µM (inactive) | 81.8 µM (inactive) | > 100 µM (inactive) | 45.9 µM (inactive) | > 100 µM (inactive) | > 100 µM (inactive) | > 100 µM (inactive) | > 100 µM (inactive) | > 100 µM (inactive) | 96.8 µM (inactive) |
| C[C@@H]1C[C@H]2OC(=O)[C@@]3(C)CCC[C@@](C)([C@@H]23)[C@@]1(O)CCc1ccoc1 | > 100 µM (inactive) | > 100 µM (inactive) | > 100 µM (inactive) | > 64.9 µM (inactive) | > 100 µM (inactive) | 79.3 | > 100 µM (inactive) | > 100 µM (inactive) | > 100 µM (inactive) | > 100 µM (inactive) | > 100 µM (inactive) | > 100 µM (inactive) | 42.2 µM (inactive) | > 100 µM (inactive) | 56.9 µM (inactive) | > 100 µM (inactive) | > 59.3 µM (inactive) | > 77.8 µM (inactive) | > 100 µM (inactive) | > 100 µM (inactive) |
| COc1ccc2nc3cc(Cl)ccc3c(NCCCNCCCNc3c4ccc(Cl)cc4nc4ccc(OC)cc34)c2c1 | < 0.01 µM (active) | < 0.01 µM (active) | 0.581 µM (active) | < 0.01 µM (active) | < 0.01 µM (active) | 0.0174 | 0.133 µM (active) | 0.0541 µM (active) | 0.0299 µM (active) | 0.0111 µM (active) | < 0.01 µM (active) | < 0.0179 µM (active) | < 0.01 µM (active) | 0.0137 µM (active) | 0.0102 µM (active) | 0.0208 µM (active) | < 0.0236 µM (active) | 0.0181 µM (active) | < 0.0224 µM (active) | < 0.01 µM (active) |
